Experimental findings from patent US12371428B2 (Exelixis, Inc., priority 2019, dated 2025) are described below.

Each structure is given as a SMILES string. Read-outs that look alike come from different tables or passages of the source.

Assay [1] has as its target AXL (phospho-AXL, Gas6-stimulated A-172 glioblastoma cells) (Homo sapiens (Human), UniProt P30530). Kind of assay: AXL autophosphorylation ELISA in A-172 cells (Example E). It counts as cell-based. The settings on record: cellular activity, read-out: Axl IC50. The method in brief: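 Phospho-AXL in lysates was quantified by ELISA, normalised to DMSO (100%) and reference inhibitor (0%) controls. IC50 by 4-parameter logistic fit.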
In general terms: In an ELISA, binding on a coated surface is turned into a signal by an enzyme label.

In assay [2] the target is Mer (phospho-Mer, MERTK-transfected 293A cells) (Homo sapiens (Human), UniProt Q12866). Kind of assay: Mer autophosphorylation ELISA in transient transfected 293A cells (Example H). Type of assay: cell-based. The following applies: cellular activity. The method in brief:
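293A cells transiently transfected with human MERTK were treated 1 h in serum-free medium with an 8-point compound dilution (0.3% DMSO final). Lysates were assayed by phospho-Mer sandwich ELISA against a phospho-Mer standard; IC50 came from a 4-parameter logistic fit, normalised to DMSO (100%) and reference-inhibitor (0%) controls.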

In assay [3] the target is Human MET (residues 956-1390) (Homo sapiens (Human), UniProt P08581). Kind of assay: Human Met kinase assay, HTRF KinEase (Example D-2). Type of assay: biochemical. The settings on record: read-out: c-Met IC50. The procedure, abridged: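 MET kinase domain (956-1390), 0.1 ng/well, in buffer with 5 mM MgCl2, 1 mM DTT and 1 mM MnCl2, phosphorylated a biotinylated peptide at ATP Km for 40 min at RT; 10 concentrations, 3% DMSO final. EDTA-stopped HTRF read after 60 min; IC50 from a 4-parameter logistic fit.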
(TR-FRET usually uses a lanthanide donor and a delayed reading to cut background.)

Assay [4] addresses KDR (phospho-KDR, VEGF165-stimulated HUVEC cells) (Homo sapiens (Human), UniProt P35968). Kind of assay: KDR autophosphorylation ELISA in HUVEC cells (Example G). Type of assay: cell-based. The following applies: cellular activity. The procedure, abridged:
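HUVECs were serum-starved 24 h, given compound as an 8-point dilution series (0.3% DMSO final) for 1 h, then stimulated with 100 ng/mL VEGF165 for 5 min. Lysate phospho-KDR was quantified by sandwich ELISA against a phospho-KDR standard, and IC50s came from a 4-parameter logistic fit.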

For assay [5], the target named is Met (phospho-Met, HGF-stimulated PC-3 prostate cancer cells) (Homo sapiens (Human), UniProt P08581). The experiment in a line: Met autophosphorylation ELISA in PC-3 cells (Example F). Type of assay: cell-based. The settings on record: cellular activity, read-out: c-Met IC50. The method in brief:
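IC50 values derive from a 4-parameter logistic fit of phospho-Met (panTyr) sandwich ELISA signals in PC-3 lysates, scaled between DMSO and reference-inhibitor wells. Cells, starved 3 h in serum-free medium, had 1 h compound exposure (8 doses, 0.3% DMSO) before 10 min stimulation with 100 ng/mL HGF.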

Where [6] appears, read: AXL autophosphorylation ELISA in A-172 cells.
[7] abbreviates: Mer autophosphorylation ELISA in transient transfected 293A cells.
[8] abbreviates: KDR autophosphorylation ELISA in HUVEC cells.
Where [9] appears, read: Met autophosphorylation ELISA in PC-3 cells.

Sequence of Mer (phospho-Mer, MERTK-transfected 293A cells) (Q12866 21-999): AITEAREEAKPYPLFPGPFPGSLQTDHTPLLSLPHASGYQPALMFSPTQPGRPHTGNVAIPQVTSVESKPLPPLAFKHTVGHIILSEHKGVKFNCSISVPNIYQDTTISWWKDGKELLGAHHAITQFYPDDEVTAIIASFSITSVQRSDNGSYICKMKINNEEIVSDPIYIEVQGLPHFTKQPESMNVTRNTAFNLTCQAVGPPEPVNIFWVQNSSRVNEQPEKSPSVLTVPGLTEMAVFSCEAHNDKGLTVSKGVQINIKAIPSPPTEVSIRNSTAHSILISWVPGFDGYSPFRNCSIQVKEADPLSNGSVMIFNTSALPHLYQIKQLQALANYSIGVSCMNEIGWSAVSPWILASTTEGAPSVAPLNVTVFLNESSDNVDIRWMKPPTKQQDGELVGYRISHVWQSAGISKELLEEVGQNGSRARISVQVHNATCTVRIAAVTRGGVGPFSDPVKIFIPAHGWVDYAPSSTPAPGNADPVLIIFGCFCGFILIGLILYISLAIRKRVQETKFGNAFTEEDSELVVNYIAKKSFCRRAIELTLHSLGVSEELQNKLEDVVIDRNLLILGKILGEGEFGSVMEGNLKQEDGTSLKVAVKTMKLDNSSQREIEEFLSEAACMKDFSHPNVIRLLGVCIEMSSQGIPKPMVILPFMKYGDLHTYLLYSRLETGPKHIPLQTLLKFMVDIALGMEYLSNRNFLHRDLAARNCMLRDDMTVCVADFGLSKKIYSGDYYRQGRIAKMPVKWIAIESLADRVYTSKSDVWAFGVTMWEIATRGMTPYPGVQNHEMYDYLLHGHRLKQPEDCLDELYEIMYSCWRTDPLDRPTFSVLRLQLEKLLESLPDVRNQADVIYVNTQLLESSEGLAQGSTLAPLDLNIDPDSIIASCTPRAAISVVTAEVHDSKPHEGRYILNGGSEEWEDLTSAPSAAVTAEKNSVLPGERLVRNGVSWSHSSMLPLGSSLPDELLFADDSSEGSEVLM
Sequence of KDR (phospho-KDR, VEGF165-stimulated HUVEC cells) (P35968 20-1356): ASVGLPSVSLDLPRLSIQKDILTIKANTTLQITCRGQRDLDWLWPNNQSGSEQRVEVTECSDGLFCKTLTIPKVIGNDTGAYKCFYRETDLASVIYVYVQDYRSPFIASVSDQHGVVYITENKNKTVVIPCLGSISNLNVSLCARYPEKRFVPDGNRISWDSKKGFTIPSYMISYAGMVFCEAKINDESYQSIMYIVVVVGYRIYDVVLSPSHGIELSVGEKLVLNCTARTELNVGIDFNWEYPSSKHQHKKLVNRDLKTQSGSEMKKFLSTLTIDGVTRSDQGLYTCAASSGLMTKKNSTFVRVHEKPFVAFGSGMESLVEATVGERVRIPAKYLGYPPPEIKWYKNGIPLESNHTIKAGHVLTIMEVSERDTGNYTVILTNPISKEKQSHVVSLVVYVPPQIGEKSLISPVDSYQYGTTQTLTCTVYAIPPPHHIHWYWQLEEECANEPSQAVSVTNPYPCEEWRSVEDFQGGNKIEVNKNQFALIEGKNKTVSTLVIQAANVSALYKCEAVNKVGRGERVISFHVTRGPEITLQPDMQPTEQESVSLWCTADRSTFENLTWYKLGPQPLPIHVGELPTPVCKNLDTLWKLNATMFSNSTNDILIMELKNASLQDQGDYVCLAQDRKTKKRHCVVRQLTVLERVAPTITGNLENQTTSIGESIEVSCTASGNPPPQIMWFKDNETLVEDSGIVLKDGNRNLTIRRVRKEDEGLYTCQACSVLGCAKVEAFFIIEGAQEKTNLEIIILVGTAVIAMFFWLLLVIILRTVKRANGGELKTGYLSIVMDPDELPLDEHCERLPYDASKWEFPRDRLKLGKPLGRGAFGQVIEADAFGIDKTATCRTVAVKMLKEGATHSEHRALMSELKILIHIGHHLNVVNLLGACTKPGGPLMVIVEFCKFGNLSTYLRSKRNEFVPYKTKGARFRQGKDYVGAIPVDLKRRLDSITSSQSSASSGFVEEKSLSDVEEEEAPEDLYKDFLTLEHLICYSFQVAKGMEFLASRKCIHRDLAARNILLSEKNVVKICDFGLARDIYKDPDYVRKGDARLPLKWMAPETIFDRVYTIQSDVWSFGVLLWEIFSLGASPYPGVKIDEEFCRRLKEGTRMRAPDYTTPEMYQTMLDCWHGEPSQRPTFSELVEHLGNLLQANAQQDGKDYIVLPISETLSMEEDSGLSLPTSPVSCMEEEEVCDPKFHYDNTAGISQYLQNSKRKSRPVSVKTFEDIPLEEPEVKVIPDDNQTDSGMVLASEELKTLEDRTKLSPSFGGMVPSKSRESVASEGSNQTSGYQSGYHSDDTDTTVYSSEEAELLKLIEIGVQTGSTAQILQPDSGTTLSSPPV
Sequence of AXL (phospho-AXL, Gas6-stimulated A-172 glioblastoma cells) (P30530 26-894): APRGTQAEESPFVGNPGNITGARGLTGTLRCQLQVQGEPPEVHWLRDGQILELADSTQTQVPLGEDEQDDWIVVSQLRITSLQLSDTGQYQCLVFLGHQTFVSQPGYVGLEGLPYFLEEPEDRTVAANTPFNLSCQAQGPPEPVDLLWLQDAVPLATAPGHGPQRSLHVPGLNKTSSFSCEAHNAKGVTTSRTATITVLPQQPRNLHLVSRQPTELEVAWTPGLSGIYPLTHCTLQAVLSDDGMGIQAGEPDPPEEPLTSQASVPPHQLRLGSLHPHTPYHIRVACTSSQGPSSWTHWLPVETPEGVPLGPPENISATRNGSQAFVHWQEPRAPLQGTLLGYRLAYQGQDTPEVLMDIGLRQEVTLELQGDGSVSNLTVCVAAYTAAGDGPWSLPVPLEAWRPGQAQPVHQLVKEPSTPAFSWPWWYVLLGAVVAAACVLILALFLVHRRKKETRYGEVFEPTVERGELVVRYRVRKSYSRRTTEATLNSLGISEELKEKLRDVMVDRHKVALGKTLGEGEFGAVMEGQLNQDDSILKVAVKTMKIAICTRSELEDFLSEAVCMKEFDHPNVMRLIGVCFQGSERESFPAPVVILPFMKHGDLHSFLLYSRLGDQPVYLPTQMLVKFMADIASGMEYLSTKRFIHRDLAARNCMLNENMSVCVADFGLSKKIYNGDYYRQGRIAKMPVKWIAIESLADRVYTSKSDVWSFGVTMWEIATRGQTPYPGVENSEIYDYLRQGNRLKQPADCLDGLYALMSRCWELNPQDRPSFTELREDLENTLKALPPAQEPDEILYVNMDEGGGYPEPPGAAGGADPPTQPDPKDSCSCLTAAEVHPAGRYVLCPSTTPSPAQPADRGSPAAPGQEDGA
Sequence of Met (phospho-Met, HGF-stimulated PC-3 prostate cancer cells) (P08581 25-1390): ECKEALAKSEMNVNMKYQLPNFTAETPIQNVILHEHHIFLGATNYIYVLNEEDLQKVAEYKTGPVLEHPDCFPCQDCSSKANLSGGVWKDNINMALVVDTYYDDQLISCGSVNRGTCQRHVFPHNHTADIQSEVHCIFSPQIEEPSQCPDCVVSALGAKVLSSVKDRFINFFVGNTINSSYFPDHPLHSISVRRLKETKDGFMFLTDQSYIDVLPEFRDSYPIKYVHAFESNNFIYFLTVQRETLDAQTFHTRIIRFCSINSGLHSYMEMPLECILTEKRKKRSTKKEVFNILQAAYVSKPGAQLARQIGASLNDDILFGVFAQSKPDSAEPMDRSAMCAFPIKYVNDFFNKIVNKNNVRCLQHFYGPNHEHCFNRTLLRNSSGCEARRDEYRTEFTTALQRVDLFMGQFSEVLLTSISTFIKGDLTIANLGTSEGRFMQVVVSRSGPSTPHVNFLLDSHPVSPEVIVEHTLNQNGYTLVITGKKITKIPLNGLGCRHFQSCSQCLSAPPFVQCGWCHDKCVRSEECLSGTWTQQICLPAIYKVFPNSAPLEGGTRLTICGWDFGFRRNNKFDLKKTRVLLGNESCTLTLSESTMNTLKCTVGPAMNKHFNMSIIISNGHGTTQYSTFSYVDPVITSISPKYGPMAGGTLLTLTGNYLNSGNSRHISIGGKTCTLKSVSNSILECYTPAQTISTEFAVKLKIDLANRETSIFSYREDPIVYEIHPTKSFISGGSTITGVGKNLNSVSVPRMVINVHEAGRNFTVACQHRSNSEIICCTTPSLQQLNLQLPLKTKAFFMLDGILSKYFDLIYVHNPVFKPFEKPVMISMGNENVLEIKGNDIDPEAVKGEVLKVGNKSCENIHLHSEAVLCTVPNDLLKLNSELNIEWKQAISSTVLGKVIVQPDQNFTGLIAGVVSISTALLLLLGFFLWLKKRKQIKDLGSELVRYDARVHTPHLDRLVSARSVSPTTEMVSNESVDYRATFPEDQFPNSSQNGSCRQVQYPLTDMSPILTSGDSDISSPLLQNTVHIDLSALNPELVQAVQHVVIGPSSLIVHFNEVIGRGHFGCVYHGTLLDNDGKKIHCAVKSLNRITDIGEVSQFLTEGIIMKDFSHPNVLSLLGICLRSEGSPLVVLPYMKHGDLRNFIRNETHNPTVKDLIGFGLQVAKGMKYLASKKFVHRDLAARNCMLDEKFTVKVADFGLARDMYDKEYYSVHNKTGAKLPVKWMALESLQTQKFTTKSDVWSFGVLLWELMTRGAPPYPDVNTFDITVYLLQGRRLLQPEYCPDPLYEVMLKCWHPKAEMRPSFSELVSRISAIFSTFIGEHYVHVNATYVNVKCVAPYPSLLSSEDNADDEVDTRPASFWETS
Sequence of Human MET (residues 956-1390) (P08581 956-1390): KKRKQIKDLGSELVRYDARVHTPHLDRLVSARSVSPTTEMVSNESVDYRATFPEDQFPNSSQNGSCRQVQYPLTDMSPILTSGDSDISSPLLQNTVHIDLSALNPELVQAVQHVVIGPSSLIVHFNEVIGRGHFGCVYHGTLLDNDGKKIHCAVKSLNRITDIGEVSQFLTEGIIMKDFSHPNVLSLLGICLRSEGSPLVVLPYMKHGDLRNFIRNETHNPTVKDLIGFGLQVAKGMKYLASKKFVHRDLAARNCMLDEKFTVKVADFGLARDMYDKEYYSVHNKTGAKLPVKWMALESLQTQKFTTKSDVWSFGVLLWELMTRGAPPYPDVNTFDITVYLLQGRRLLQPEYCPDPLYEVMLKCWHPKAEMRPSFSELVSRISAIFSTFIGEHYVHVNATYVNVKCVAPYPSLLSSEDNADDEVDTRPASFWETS

By IC50 is commonly meant the concentration that inhibits the measured activity by half. For the compound `COc1cc2nccc(Oc3ccc(NC(=O)c4cn(C5CN(C)C5)cc(-c5ccc(F)cc5)c4=O)cc3F)c2nc1OC` [Compound 52, N-[4-[(6,7-Dmethoxy-1,5-naphthyridin-4-yl)oxy]-3-fluorophenyl]-5-(4-fluorophenyl)-1-(1-methylazetidin-3-yl)-4-oxopyridine-3-carboxamide], the concentration for half-maximal inhibition (IC50) in assay [1] (setting [6]) is under 100 nM; in assay [2] (setting [7]), under 100 nM; in assay [3] (protocol of Example D-2 (other compounds)), under 100 nM; in assay [4] (setting [8]) it was over 300 nM; in assay [5] (setting [9]) it was under 100 nM.
For `COc1cc2nccc(Oc3ccc(NC(=O)c4cn(C5CNC5)cc(-c5ccc(F)cc5)c4=O)cc3F)c2nc1OC` [Compound 576, 1-(Azetidin-3-yl)-N-[4-[(6,7-dimethoxy-1,5-naphthyridin-4-yl)oxy]-3-fluorophenyl]-5-(4-fluorophenyl)-4-oxopyridine-3-carboxamide], the IC50 was under 100 nM in assay [1] (setting [6]); under 100 nM in assay [2] (setting [7]); under 100 nM in assay [3] (protocol of Example D-2); over 300 nM in assay [4] (setting [8]); under 100 nM in assay [5] (setting [9]).
For `COc1cnc2c(Oc3ccc(NC(=O)c4c(C)n(CCF)cc(-c5ccc(F)c(C)c5)c4=O)cc3F)ccnc2c1` [Compound 813, 1-(2-fluoroethyl)-N-[3-fluoro-4-[(7-methoxy-1,5-naphthyridin-4-yl)oxy]phenyl]-5-(4-fluoro-3-methylphenyl)-2-methyl-4-oxopyridine-3-carboxamide], the IC50 is under 100 nM in assay [1] (A-172 cells), under 100 nM in assay [2] (transfected 293A cells), 100 to 300 nM in assay [4] (HUVEC cells) and under 100 nM in assay [5] (PC-3 cells).
For the compound `COc1cnc2c(Oc3ccc(NC(=O)c4c(C)n(CC(F)F)cc(-c5ccc(F)c(C)c5)c4=O)cc3F)ccnc2c1` [Compound 814, 1-(2,2-difluoroethyl)-N-[3-fluoro-4-[(7-methoxy-1,5-naphthyridin-4-yl)oxy]phenyl]-5-(4-fluoro-3-methylphenyl)-2-methyl-4-oxopyridine-3-carboxamide], the IC50 is under 100 nM in assay [1] (A-172 cells), under 100 nM in assay [2] (transfected 293A cells), over 300 nM in assay [4] (HUVEC cells) and under 100 nM in assay [5] (PC-3 cells).
Turning to `COc1cc2nccc(Oc3ccc(NC(=O)c4c(C)n(CCF)cc(-c5ccc(F)c(F)c5)c4=O)cc3F)c2nc1OC` [Compound 815, 5-(3,4-difluorophenyl)-N-[4-[(6,7-dimethoxy-1,5-naphthyridin-4-yl)oxy]-3-fluorophenyl]-1-(2-fluoroethyl)-2-methyl-4-oxopyridine-3-carboxamide], the IC50 was under 100 nM in assay [1] (A-172 cells), under 100 nM in assay [2] (transfected 293A cells), 100 to 300 nM in assay [4] (HUVEC cells) and under 100 nM in assay [5] (PC-3 cells).
On to `COc1cc2nccc(Oc3ccc(NC(=O)c4c(C)n(CC(F)F)cc(-c5ccc(F)c(F)c5)c4=O)cc3F)c2nc1OC` [Compound 816, 1-(2,2-difluoroethyl)-5-(3,4-difluorophenyl)-N-[4-[(6,7-dimethoxy-1,5-naphthyridin-4-yl)oxy]-3-fluorophenyl]-2-methyl-4-oxopyridine-3-carboxamide], for which the IC50 in assay [1] (A-172 cells) was under 100 nM; in assay [2] (transfected 293A cells) it was under 100 nM; in assay [4] (HUVEC cells), over 300 nM; in assay [5] (PC-3 cells), under 100 nM.
For `COc1cc2nccc(Oc3ccc(NC(=O)c4c(C)n(C)c(C)c(-c5ccc(F)c(C)c5)c4=O)cc3F)c2nc1OC` [Compound 821, N-[4-[(6,7-dimethoxy-1,5-naphthyridin-4-yl)oxy]-3-fluorophenyl]-5-(4-fluoro-3-methylphenyl)-1,2,6-trimethyl-4-oxopyridine-3-carboxamide], the IC50 in assay [1] (A-172 cells) was under 100 nM; in assay [2] (transfected 293A cells), under 100 nM; in assay [4] (HUVEC cells), 100 to 300 nM; in assay [5] (PC-3 cells) it was under 100 nM.
